Results from patent US8969392B2, “Pesticide composition comprising propamocarb-fosetylate and an insecticidally active substance” (Bayer Cropscience AG, priority 2006, dated 2015).

Assays:
Myzus persicae = Myzus persicae test (cabbage leaf dip, mortality); type: in vivo; conditions: mortality after 6 days, cabbage leaves dipped
Method: (§1) To produce a suitable preparation of active compound, 1 part by weight of active compound is mixed with the stated amount of solvent and emulsifier, and the concentrate is diluted with emulsifier-containing water to the desired concentration.
Cabbage leaves (Brassica oleracea) which are heavily infested by the green peach aphid (Myzus persicae) are treated by being dipped into the preparation of the active compound at the desired concentration.
After a period of time of 6 days, the mortality is determined. 100% means that all the […] have been killed; 0% means that none of the […] have been killed.

Phaedon cochleariae = Phaedon cochleariae test (cabbage leaf dip, larvae, mortality); type: in vivo; conditions: mortality after 4 days, cabbage leaves dipped
Method: as §1
Cabbage leaves (Brassica oleracea) are treated by being dipped into the preparation of the active compound at the desired concentration and are infested with larvae of the mustard beetle Phaedon cochleariae as long as the leaves are still moist.
After a period of time of 4 days, the mortality is determined. 100% means that all the […] have been killed; 0% means that none of the […] have been killed.

Plutella xylostella = Plutella xylostella test (cabbage leaf dip, larvae, mortality); type: in vivo; conditions: mortality after 6 days, cabbage leaves dipped
Method: as §1
Cabbage leaves (Brassica oleracea) are treated by being dipped into the preparation of the active compound at the desired concentration and are infested with larvae of the diamond black moth Plutella xylostella as long as the leaves are still moist.
After a period of time of 6 days, the mortality is determined. 100% means that all the caterpillars have been killed; 0% means that none of the caterpillars have been killed.

Plasmopara viticola = conditions: straight use of the compound; WO-99/42468; cited from earlier work

CN/C(=N\[N+](=O)[O-])NCc1cnc(Cl)s1 [Clothianidin, clothianidin]
Efficacy (%) (Myzus persicae; rate of application 0.8 ppm): 75%

O=[N+]([O-])NC1=NCCN1Cc1ccc(Cl)nc1 [Imidacloprid, imidacloprid]
Efficacy (%) (Phaedon cochleariae; rate of application 20 ppm): 80%

CCCOC(=O)NCCCN(C)C.CCO[PH](=O)O [Propamocarb-fosetylate, dimethyl-[3-(propoxycarbonylamino)propyl]ammonium-O-ethylphosphonate]
Efficacy (%) (Myzus persicae; rate of application 200 ppm): 0% | Efficacy (%) (Phaedon cochleariae; rate of application 200 ppm): 5% | Efficacy (%) (Plutella xylostella; rate of application 200 ppm): 0% | fungicide activity to control Plasmopara viticola (Plasmopara viticola): Some fungicide activity

N#C/N=C1\SCCN1Cc1ccc(Cl)nc1 [thiacloprid]
Efficacy (%) (Plutella xylostella; rate of application 20 ppm): 20%
